From patent US10520492B2, “Method of screening for candidate compounds for regulating melanogenesis or pigmentation” (CHANEL PARFUMS BEAUTE, priority 2013, dated 2019)
Entries after “also recorded” stand apart in the source; their conditions may differ.

How the values were obtained:
mortalin [1] = test: Mortalin expression (immunoblotting) in G361 cells; format: cell-based, human
Description: (§1) G361 cells were cultured overnight and allowed to adhere to the surface well after which they were treated with TXC supplemented medium or OAG as described below followed by recovery in the TXC medium at doses indicated in the data figs.
(§2) Cells were grown and treated in 6-well plates. After transfections or drug treatments as described above, the cells were lysed with RIPA lysis buffer. Cell lysate (30 μg) was resolved on SDS-PAGE followed by transfer onto a nitrocellulose membrane (Millipore) using a semidry transfer blotter. Immunoassays were done with anti-mortalin, anti-HSP70 and anti-tyrosinase antibodies. The immunocomplexes formed were visualized with horseradish peroxidase-conjugated anti-rabbit/mouse immunoglobulin G. The bands were detected by LAS 3000 mini (FujiFilm).

mortalin [2] = test: Immunostaining of mortalin upon OAG induction; format: cell-based, human; details: induction of melanogenesis by OAG, FIG. 5
Description: (§3) Cells were cultured and treated on glass coverslips placed in 12-well culture dish. At the end of the treatment as described above, coverslips were washed with cold phosphate-buffered saline (PBS) and the cells were fixed with pre-chilled methanol:acetone (1:1 v/v) mixture for 5-10 min. Fixed cells were washed with PBS, permeabilized with 0.2% TRITON™ X-100 (4-(1,1,3,3-Tetramethylbutyl)phenyl-polyethylene glycol) in PBS for 10 min, and blocked with 2% bovine serum albumin (BSA) in PBS for 20 min. Cells were stained with anti-mortalin, anti-HSP60, anti-tyrosinase and anti-melanosome antibodies. Immunostaining was visualized by secondary staining with Alexa-488 or Alexa-594 conjugated antibodies (Molecular probes). After three to four washings with 0.2% TRITON™ X-100 in PBS (PBST), cells were overlaid with Fluoromount (Difco). The cells were examined with Carl Zeiss microscope with epifluorescence optics.

tyrosinase [3] = test: Tyrosinase ELISA (tyrosinase activity assay) in G361 cells; format: cell-based, human
Description: Cells (Approximately 10000 cells/well) were plated in 96 well Nunc-Immuno maxisorp plates. At about 70% confluency, cells were transfected with shRNA plasmids (100 ng/well) as described above. After 24 hrs post-transfection, the cells were selected in puromycin-supplemented medium and were then processed for tyrosinase ELISA as described below. Cells were washed with PBS twice and were lysed in RIPA lysis buffer (Santa Cruz Biotechnology). Protein concentrations of the lysates were determined (Pierce BCA Protein Assay kit, Thermo Scientific) and the samples were diluted to 1 ug/ul concentration in coating buffer (0.1 M Sodium bicarbonate, 0.02% Sodium Azide pH-9.6). 5 μg of the protein sample was added to each well in a final volume of 100 μl of the coating buffer. The plates were gently shaken for 10 min and were then securely sealed and left for 2 hrs at room temperature. The solution was discarded and the plates were washed with washing buffer (PBS-0.5% TWEEN® 20, which is polysorbate 20) for 5 min. Blocking buffer (200 ul) was added to each well and the plates were incubated for 2 hours at room temperature followed by washings with the Washing buffer twice (3 min each). Anti-tyrosinase antibody (50 μl, 5 μg/ml in the blocking buffer) was added to each well and the plated were sealed and kept at room temperature for 1-2 hrs followed by washings with the washing buffer (3×10 min). The plates were incubated with the secondary antibody (Alkaline phosphatase, AP-Goat anti Rabbit IgG) for 1 hr and were then washed with the washing buffer for 3-5 times. The 100 μl of the substrate for AP (Nitrophenyl Phosphate, Disodium Salt, PNPP) was added to each well. Plates were again sealed and left for 30 min followed by measuring the absorbance at 405 nm that represented the quantitative estimation of tyrosinase expression.

[4] = test system: primary melanocytes from a skin donor; test: Melanosome immunostaining in primary melanocytes from donor; format: cell-based, human; details: OAG-treated vs control primary melanocytes, FIG. 1A
Description: (§4) The human melanoma G361 were bought from Cell Resource Center for Biomedical Research, Tohoku University, Japan and were cultured in DMEM (Dulbecco's Modified Eagle's Medium, Invitrogen) supplemented with 10% fetal bovine serum in a humidified incubator (37° C. and 5% CO2). Human primary melanocytes from the light and dark skin donors were bought from ScienCell Research Laboratories and were cultured in the recommended melanocyte growth medium. Cells were transfected with the expression plasmids coding for either mortalin or HSP60 protein using Fugene (Roche) as per recommended protocol. Typically 3-5 μg of plasmid DNA was used for 6 cms culture dish at 70-80% confluency. Cells were incubated with the plasmids for 48 hrs after which cells were harvested and examined for the expression indicated genes by protocols as described below. For shRNA transfections, Oligofectamine™ Transfection Reagent (Life Technologies™) was used as per manufacturer's instructions. Transfected cells were incubated with medium supplemented with puromycin (1 ug/ml) for 24-48 hrs and were then processed for assays as described below.
(§5) Cells were cultured and treated on glass coverslips placed in 12-well culture dish. […]

Hsp60 [5] = test: Immunostaining of Hsp60 upon OAG induction; format: cell-based, human; details: induction of melanogenesis by OAG, FIG. 4
Description: as §3

[6] = test system: human melanoma cells G361; test: Melanosome immunostaining in G361 cells; format: cell-based; details: OAG-treated vs control G361 cells, FIG. 1B
Description: as §4, §5

tyrosinase [7] = test: Western blotting of tyrosinase in G361 cells; format: cell-based, human
Description: as §2

G361 cells = test: Melanin content in G361 cells; format: cell-based, human; details: for OAG-induced melanin content: OAG-treated G361 cells, recovery with test substance
Description: Cells were treated with Di-acyl glycerol (OAG, 20 μg/ml) for 24 h followed by recovery either in the normal medium as described below or Vitamin C (0.1-0.3 mM) for 24 to 48 hrs.
as §1
Cells were plated in 96 well plates and allowed to attach well to the surface of the plate for 24 hours followed by transfections and treatments as described above and indicated in the figure legends. Cells were washed with PBS. Potassium hydroxide (KOH-0.85 N, 100 μl) was added to each. The plates were shaken gently in dark for overnight. Absorbance of the pigment was measured at 405 nm. Melanin content was calculated by using standard purified melanin (Sigma).

Hsp60 [8] = test: Hsp60 expression in G361 cells; format: cell-based, human; details: FIG. 13B, Hydrochloride Salt

SMILES	mortalin expression (mortalin [1]; G361 cells treated with OAG, FIG. 13C)	mortalin level (immunostaining) (mortalin [2])	tyrosinase activity (tyrosinase [3]; OAG-treated G361 cells, FIG. 3B)	melanosome production [4]	Hsp60 level (immunostaining) (Hsp60 [5])	melanosome production [6]	tyrosinase expression (tyrosinase [7]; OAG-treated G361 cells, FIG. 3A)	melanin content (G361 cells; G361 cells treated with OAG, FIG. 2)	OAG-induced expression of Mortalin (mortalin [1]; G361 cells treated with OAG, then recovery in presence of test substance, Hydrochloride Salt)	endogenous expression of Mortalin (mortalin [1]; G361 cells, FIG. 13, Hydrochloride Salt)	endogenous expression of Hsp60 (Hsp60 [8])	OAG-induced tyrosinase activity (tyrosinase [3]; OAG-treated G361 cells, TXC at various concentrations, FIG. 12)	endogenous expression of tyrosinase (tyrosinase [7]; G361 cells, FIG. 13A, Hydrochloride Salt)	OAG-induced melanin content (G361 cells)	endogenous melanin (G361 cells; OAG-untreated G361 cells)	OAG-induced tyrosinase (tyrosinase [3]; OAG-treated G361 cells then Vitamin C, FIG. 3)
CCCCCCCC/C=C\CCCCCCCC(=O)OC[C@H](CO)OC(C)=O [OAG, 1-oleoyl-2-acetyl-sn-glycero]	Increase	upregulation	increase	induced	upregulation	induced	increase	Increase								
CCCCCCCCCCCCCCCCOC(=O)C1CCC(CN)CC1.Cl (centres unmarked) [TXC, Cetyl Tranexamate Hydrochloride Salt]									reduction; also recorded: decrease	reduction; also recorded: decreases	Reduction; also recorded: decreases	reduction	Reduction; also recorded: decreases	reduction	reduction	
O=C1O[C@H]([C@@H](O)CO)C(O)=C1O [Vitamin C]														reduction		decrease
